# PubChem BioAssay (NCI)
#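 48-hour exposure; five concentrations; linearly interpolated endpoints. GI50: concentration for 50% inhibition of growth. Definition used: TGI = concentration required for complete inhibition of growth.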
# Columns and labels:
# Assay in all cases: growth of human tumour cells (NCI), 48 h
# [1] = test system: A498 renal
# [2] = test system: COLO 205 colon
# [3] = test system: DU-145 prostate
# [4] = test system: HOP-92 NSCLC
# [5] = test system: MALME-3M melanoma
# [6] = test system: OVCAR-5 ovarian
# [7] = test system: RPMI-8226 leukemia
# [8] = test system: SK-MEL-5 melanoma
# [9] = test system: SN12C renal
# [10] = test system: SW-620 colon
# [11] = test system: TK-10 renal
# [12] = test system: UACC-257 melanoma
# [13] = test system: UACC-62 melanoma
# [14] = test system: 786-0 renal
# [15] = test system: A549 NSCLC
# [16] = test system: ACHN renal
# [17] = test system: BT-549 breast
# [18] = test system: CAKI-1 renal
# [19] = test system: CCRF-CEM leukemia
# [20] = test system: HCC-2998 colon
# [21] = test system: HCT-116 colon
# [22] = test system: HCT-15 colon
# [23] = test system: HL-60(TB) leukemia
# [24] = test system: HOP-62 NSCLC
# [25] = test system: HS 578T breast
# [26] = test system: HT29 colon
# [27] = test system: IGROV1 ovarian
# [28] = test system: K-562 leukemia
# [29] = test system: KM12 colon
# [30] = test system: LOX IMVI melanoma
# [31] = test system: M14 melanoma
# [32] = test system: MCF7 breast
# [33] = test system: MDA-MB-231 breast
# [34] = test system: MDA-MB-435
# [35] = test system: MOLT-4 leukemia
# [36] = test system: NCI-H226 lung
# [37] = test system: NCI-H23 lung
# [38] = test system: NCI-H460 lung
# [39] = test system: NCI-H522 lung
# [40] = test system: OVCAR-3 ovarian
# [41] = test system: OVCAR-4 ovarian
# [42] = test system: OVCAR-8 ovarian
# [43] = test system: PC-3 prostate
# [44] = test system: RXF 393 renal
# [45] = test system: SF-268 CNS
# [46] = test system: SF-295 CNS
# [47] = test system: SF-539 CNS
# [48] = test system: SK-MEL-2 melanoma
# [49] = test system: SK-MEL-28 melanoma
# [50] = test system: SK-OV-3 ovarian
# [51] = test system: SNB-19 CNS
# [52] = test system: SNB-75 CNS
# [53] = test system: SR leukemia
# [54] = test system: T-47D breast
# [55] = test system: U251 CNS
# [56] = test system: UO-31 renal
# [57] = test system: NCI/ADR-RES ovarian
# [58] = test system: EKVX NSCLC
structure (smiles),measurement,setting,value
CCCCNCCC(O)c1cc2ccc(C(F)(F)F)cc2c2cc(C(F)(F)F)ccc12 (stereo not drawn),GI50,[1],1320 nM
same,TGI,[1],2640 nM
same,GI50,[2],339 nM
same,TGI,[2],1070 nM
same,GI50,[3],1870 nM
same,TGI,[3],3380 nM
same,GI50,[4],1100 nM
same,TGI,[4],2440 nM
same,GI50,[5],1960 nM
same,TGI,[5],3870 nM
same,GI50,[6],1610 nM
same,TGI,[6],3130 nM
same,GI50,[7],2040 nM
same,TGI,[7],4630 nM
same,GI50,[8],1690 nM
same,TGI,[8],3060 nM
same,GI50,[9],1820 nM
same,TGI,[9],3410 nM
same,GI50,[10],1300 nM
same,TGI,[10],2790 nM
same,GI50,[11],1880 nM
same,TGI,[11],3390 nM
same,GI50,[12],1520 nM
same,TGI,[12],3020 nM
same,GI50,[13],1780 nM
same,TGI,[13],3350 nM
COc1ccc(-c2nsc3c2NC(=O)CC3c2ccc3c(c2)OCCO3)cc1 (stereo not drawn),GI50,[14],829 nM
same,TGI,[14],> 100000 nM
same,GI50,[1],212 nM
same,TGI,[1],1030 nM
same,GI50,[15],603 nM
same,TGI,[15],> 100000 nM
same,GI50,[16],892 nM
same,TGI,[16],> 100000 nM
same,GI50,[17],674 nM
same,TGI,[17],> 100000 nM
same,GI50,[18],429 nM
same,TGI,[18],> 100000 nM
same,GI50,[19],406 nM
same,TGI,[19],> 100000 nM
same,GI50,[2],431 nM
same,TGI,[2],2180 nM
same,GI50,[3],1070 nM
same,TGI,[3],> 21600 nM
same,GI50,[20],1380 nM
same,TGI,[20],19500 nM
same,GI50,[21],526 nM
same,TGI,[21],> 100000 nM
same,GI50,[22],504 nM
same,TGI,[22],> 100000 nM
same,GI50,[23],326 nM
same,TGI,[23],12500 nM
same,GI50,[24],585 nM
same,TGI,[24],> 100000 nM
same,GI50,[4],356 nM
same,TGI,[4],> 100000 nM
same,GI50,[25],398 nM
same,TGI,[25],> 100000 nM
same,GI50,[26],419 nM
same,TGI,[26],> 55500 nM
same,GI50,[27],1600 nM
same,TGI,[27],> 100000 nM
same,GI50,[28],367 nM
same,TGI,[28],> 100000 nM
same,GI50,[29],521 nM
same,TGI,[29],> 100000 nM
same,GI50,[30],601 nM
same,TGI,[30],> 100000 nM
same,GI50,[31],397 nM
same,TGI,[31],> 100000 nM
same,GI50,[5],336 nM
same,TGI,[5],> 100000 nM
same,GI50,[32],371 nM
same,TGI,[32],> 100000 nM
same,GI50,[33],1590 nM
same,TGI,[33],> 100000 nM
same,GI50,[34],173 nM
same,TGI,[34],438 nM
same,GI50,[35],622 nM
same,TGI,[35],> 100000 nM
same,GI50,[36],5190 nM
same,TGI,[36],> 26600 nM
same,GI50,[37],1380 nM
same,TGI,[37],> 100000 nM
same,GI50,[38],396 nM
same,TGI,[38],> 46000 nM
same,GI50,[39],551 nM
same,TGI,[39],> 100000 nM
same,GI50,[40],327 nM
same,TGI,[40],1150 nM
same,GI50,[41],2860 nM
same,TGI,[41],> 100000 nM
same,GI50,[6],10200 nM
same,TGI,[6],> 100000 nM
same,GI50,[42],1020 nM
same,TGI,[42],> 100000 nM
same,GI50,[43],528 nM
same,TGI,[43],> 100000 nM
same,GI50,[7],492 nM
same,TGI,[7],42400 nM
same,GI50,[44],629 nM
same,GI50,[45],1920 nM
same,TGI,[45],> 100000 nM
same,GI50,[46],434 nM
same,TGI,[46],> 33200 nM
same,GI50,[47],800 nM
same,TGI,[47],6710 nM
same,GI50,[48],7240 nM
same,TGI,[48],> 100000 nM
same,GI50,[49],2700 nM
same,TGI,[49],> 100000 nM
same,GI50,[8],370 nM
same,TGI,[8],5860 nM
same,GI50,[50],476 nM
same,TGI,[50],8460 nM
same,GI50,[9],776 nM
same,TGI,[9],> 100000 nM
same,GI50,[51],924 nM
same,TGI,[51],> 100000 nM
same,GI50,[52],220 nM
same,TGI,[52],> 100000 nM
same,GI50,[53],301 nM
same,TGI,[53],> 100000 nM
same,GI50,[10],384 nM
same,TGI,[10],> 100000 nM
same,GI50,[54],454 nM
same,TGI,[54],> 100000 nM
same,GI50,[11],1870 nM
same,TGI,[11],> 100000 nM
same,GI50,[55],500 nM
same,TGI,[55],> 100000 nM
same,GI50,[12],981 nM
same,TGI,[12],> 100000 nM
same,GI50,[13],482 nM
same,TGI,[13],> 100000 nM
same,GI50,[56],2190 nM
same,TGI,[56],> 100000 nM
Fc1ccc2[nH]cc(-c3nc(-c4c[nH]c5ccncc45)cs3)c2c1,GI50,[1],1980 nM
same,TGI,[1],3430 nM
same,GI50,[16],1610 nM
same,TGI,[16],2970 nM
same,GI50,[17],1650 nM
same,TGI,[17],3070 nM
same,GI50,[19],1890 nM
same,TGI,[19],4650 nM
same,GI50,[3],1690 nM
same,TGI,[3],3100 nM
same,GI50,[20],1920 nM
same,TGI,[20],3490 nM
same,GI50,[23],2070 nM
same,TGI,[23],4580 nM
same,GI50,[40],1800 nM
same,TGI,[40],3300 nM
same,GI50,[6],1930 nM
same,TGI,[6],3380 nM
same,GI50,[43],1470 nM
same,TGI,[43],2990 nM
same,GI50,[44],1480 nM
same,TGI,[44],2860 nM
same,GI50,[46],1680 nM
same,TGI,[46],3100 nM
same,GI50,[47],1520 nM
same,TGI,[47],2880 nM
same,GI50,[48],1910 nM
same,TGI,[48],3750 nM
same,GI50,[49],1900 nM
same,TGI,[49],3330 nM
same,GI50,[50],1650 nM
same,TGI,[50],3220 nM
same,GI50,[9],1520 nM
same,TGI,[9],2920 nM
same,GI50,[52],1220 nM
same,TGI,[52],2620 nM
same,GI50,[11],2300 nM
same,TGI,[11],3910 nM
same,GI50,[12],1910 nM
same,TGI,[12],3580 nM
same,GI50,[13],1720 nM
same,TGI,[13],3200 nM
same,GI50,[56],1330 nM
same,TGI,[56],2610 nM
COc1ccc(N2C(=O)/C(=C/C(Cl)=C/c3ccc([N+](=O)[O-])cc3)SC2=S)cc1,GI50,[24],2120 nM
same,TGI,[24],> 100000 nM
same,GI50,[25],3280 nM
same,TGI,[25],> 37900 nM
same,GI50,[28],555 nM
same,TGI,[28],> 100000 nM
same,GI50,[32],393 nM
same,TGI,[32],> 100000 nM
same,GI50,[33],1690 nM
same,TGI,[33],> 100000 nM
same,GI50,[35],679 nM
same,TGI,[35],> 100000 nM
same,GI50,[36],4230 nM
same,TGI,[36],> 100000 nM
same,GI50,[57],562 nM
same,TGI,[57],> 100000 nM
same,GI50,[42],462 nM
same,TGI,[42],> 100000 nM
same,GI50,[7],268 nM
same,TGI,[7],727 nM
same,GI50,[45],2950 nM
same,TGI,[45],> 100000 nM
same,GI50,[48],> 21300 nM
same,TGI,[48],> 100000 nM
same,GI50,[53],312 nM
same,TGI,[53],22000 nM
same,GI50,[54],725 nM
same,TGI,[54],> 100000 nM
same,GI50,[11],2760 nM
same,TGI,[11],> 100000 nM
same,GI50,[12],2880 nM
same,TGI,[12],> 100000 nM
N#Cc1ccc(CSc2ncnc3nc[nH]c23)cc1,GI50,[1],80000 nM
same,GI50,[15],92400 nM
same,GI50,[16],38400 nM
same,GI50,[17],95000 nM
same,GI50,[19],95100 nM
same,GI50,[2],52200 nM
same,GI50,[58],90100 nM
same,GI50,[4],15800 nM
same,TGI,[4],79500 nM
same,GI50,[25],72000 nM
same,GI50,[26],77300 nM
same,GI50,[28],63700 nM
same,GI50,[33],94400 nM
same,GI50,[34],79000 nM
same,GI50,[35],92800 nM
same,GI50,[38],43000 nM
same,GI50,[57],54300 nM
same,GI50,[41],97400 nM
same,GI50,[7],54900 nM
same,GI50,[52],6860 nM
same,TGI,[52],66300 nM
same,GI50,[54],80700 nM
same,GI50,[11],37300 nM
same,GI50,[12],73300 nM
same,GI50,[56],30700 nM
